Tests used:
ALK2/ACVR1 = biological target: T1, ALK2/ACVR1 (Homo sapiens, UniProt Q04771); assay type: biochemical; settings: biochemical ALK5 IC50 / ALK2 IC50
T1 construct: purchased Reaction Biology Corporation
T1 sequence (Q04771 21-509): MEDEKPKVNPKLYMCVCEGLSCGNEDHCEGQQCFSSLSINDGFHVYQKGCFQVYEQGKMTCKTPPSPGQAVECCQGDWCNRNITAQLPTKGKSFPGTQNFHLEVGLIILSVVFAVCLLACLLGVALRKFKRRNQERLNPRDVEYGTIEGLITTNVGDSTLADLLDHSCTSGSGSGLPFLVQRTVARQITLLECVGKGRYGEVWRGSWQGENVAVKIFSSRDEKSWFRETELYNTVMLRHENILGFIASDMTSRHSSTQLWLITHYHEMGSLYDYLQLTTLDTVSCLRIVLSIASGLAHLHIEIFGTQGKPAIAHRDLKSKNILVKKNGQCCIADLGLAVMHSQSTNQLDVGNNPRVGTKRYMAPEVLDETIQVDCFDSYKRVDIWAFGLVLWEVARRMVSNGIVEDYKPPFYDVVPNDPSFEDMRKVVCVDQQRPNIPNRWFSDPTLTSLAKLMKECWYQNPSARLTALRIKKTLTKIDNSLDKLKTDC

TRKA = TRKA (Homo sapiens, UniProt P04629); test: biochemical; settings: read-out: % enzyme activity, 1 μM; Run 1, Run 2
Sequence of TRKA (P04629 33-796): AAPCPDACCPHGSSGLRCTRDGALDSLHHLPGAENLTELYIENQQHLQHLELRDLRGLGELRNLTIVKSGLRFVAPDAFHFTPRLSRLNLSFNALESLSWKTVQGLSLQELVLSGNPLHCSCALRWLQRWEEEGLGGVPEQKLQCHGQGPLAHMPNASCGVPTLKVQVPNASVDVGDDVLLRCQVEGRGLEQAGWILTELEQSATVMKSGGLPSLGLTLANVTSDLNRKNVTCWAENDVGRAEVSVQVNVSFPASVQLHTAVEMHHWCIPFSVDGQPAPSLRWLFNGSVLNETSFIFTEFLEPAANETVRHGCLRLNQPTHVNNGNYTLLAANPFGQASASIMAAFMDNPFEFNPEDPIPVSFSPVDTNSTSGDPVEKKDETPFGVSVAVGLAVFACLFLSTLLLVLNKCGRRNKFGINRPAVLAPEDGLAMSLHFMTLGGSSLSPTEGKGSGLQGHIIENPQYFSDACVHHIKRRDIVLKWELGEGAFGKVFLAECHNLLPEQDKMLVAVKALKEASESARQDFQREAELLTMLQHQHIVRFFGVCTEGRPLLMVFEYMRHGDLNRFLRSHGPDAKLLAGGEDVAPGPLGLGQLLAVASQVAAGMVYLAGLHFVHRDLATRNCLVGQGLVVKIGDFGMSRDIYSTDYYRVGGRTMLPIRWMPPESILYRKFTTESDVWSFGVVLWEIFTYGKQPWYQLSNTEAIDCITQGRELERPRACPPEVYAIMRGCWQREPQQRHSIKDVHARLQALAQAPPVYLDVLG

in vivo = settings: female, CB17 SCID, mouse, po, 10 mg/kg
DDR1 = biological target: T2, DDR1 (Homo sapiens, UniProt Q08345); test: 375-member kinase panel; assay type: biochemical; settings: Run 1, Run 2
T2 construct: purchased Reaction Biology Corporation
T2 sequence (Q08345 19-913): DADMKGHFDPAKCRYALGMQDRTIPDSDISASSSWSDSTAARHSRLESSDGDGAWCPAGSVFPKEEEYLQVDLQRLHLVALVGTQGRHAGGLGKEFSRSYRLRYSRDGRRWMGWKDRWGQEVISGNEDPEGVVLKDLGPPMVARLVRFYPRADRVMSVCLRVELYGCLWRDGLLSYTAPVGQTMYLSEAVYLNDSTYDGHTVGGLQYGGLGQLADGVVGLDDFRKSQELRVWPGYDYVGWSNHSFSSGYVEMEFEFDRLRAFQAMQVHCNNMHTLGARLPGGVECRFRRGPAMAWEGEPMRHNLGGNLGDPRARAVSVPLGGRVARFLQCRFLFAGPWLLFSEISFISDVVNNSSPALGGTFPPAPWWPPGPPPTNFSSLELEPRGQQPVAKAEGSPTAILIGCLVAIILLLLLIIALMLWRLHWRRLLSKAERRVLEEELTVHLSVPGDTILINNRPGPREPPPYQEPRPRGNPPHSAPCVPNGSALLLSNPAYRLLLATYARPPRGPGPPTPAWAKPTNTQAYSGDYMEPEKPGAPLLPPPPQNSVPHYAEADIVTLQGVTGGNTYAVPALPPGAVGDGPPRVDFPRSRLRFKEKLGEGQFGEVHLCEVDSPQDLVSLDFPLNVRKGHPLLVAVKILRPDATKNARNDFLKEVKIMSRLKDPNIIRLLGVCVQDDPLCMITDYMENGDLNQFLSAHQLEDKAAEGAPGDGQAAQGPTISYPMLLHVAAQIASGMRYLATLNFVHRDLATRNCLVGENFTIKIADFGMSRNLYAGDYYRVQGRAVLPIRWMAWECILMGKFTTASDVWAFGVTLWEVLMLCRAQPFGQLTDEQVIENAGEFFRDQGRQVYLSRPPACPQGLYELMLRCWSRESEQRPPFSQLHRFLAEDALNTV

PKN1/PRK1 = PKN1/PRK1 (Homo sapiens, UniProt Q16512); settings: 1 μM; Run 1, Run 2
Sequence of PKN1/PRK1 (Q16512 whole entry): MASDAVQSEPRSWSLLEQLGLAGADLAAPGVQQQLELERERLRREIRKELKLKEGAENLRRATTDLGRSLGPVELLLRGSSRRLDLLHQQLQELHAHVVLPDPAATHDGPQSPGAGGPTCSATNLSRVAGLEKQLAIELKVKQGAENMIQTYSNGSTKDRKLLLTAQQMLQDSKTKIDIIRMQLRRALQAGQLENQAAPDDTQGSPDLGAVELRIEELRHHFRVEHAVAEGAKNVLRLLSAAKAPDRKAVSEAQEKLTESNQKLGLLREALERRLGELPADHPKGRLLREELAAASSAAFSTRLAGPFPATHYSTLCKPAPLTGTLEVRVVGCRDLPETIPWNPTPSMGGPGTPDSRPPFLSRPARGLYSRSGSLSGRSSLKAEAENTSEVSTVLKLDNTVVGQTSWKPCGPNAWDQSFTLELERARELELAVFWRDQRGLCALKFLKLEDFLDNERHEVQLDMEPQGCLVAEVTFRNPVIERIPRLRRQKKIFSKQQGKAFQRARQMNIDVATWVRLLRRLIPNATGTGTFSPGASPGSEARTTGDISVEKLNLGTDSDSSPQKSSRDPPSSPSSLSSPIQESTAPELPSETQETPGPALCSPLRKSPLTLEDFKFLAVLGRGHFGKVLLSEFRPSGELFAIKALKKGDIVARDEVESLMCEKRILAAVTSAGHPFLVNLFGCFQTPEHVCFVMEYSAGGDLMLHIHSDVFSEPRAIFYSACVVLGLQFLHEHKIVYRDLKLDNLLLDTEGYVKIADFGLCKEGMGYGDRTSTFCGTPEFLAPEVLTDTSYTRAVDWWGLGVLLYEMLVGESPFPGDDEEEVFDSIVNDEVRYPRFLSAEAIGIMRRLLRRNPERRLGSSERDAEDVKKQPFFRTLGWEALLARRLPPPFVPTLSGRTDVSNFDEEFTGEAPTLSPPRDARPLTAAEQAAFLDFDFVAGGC

CAMK2g = CAMK2g (Homo sapiens, UniProt Q13555); settings: 1 μM; Run 1, Run 2
Sequence of CAMK2g (Q13555 whole entry): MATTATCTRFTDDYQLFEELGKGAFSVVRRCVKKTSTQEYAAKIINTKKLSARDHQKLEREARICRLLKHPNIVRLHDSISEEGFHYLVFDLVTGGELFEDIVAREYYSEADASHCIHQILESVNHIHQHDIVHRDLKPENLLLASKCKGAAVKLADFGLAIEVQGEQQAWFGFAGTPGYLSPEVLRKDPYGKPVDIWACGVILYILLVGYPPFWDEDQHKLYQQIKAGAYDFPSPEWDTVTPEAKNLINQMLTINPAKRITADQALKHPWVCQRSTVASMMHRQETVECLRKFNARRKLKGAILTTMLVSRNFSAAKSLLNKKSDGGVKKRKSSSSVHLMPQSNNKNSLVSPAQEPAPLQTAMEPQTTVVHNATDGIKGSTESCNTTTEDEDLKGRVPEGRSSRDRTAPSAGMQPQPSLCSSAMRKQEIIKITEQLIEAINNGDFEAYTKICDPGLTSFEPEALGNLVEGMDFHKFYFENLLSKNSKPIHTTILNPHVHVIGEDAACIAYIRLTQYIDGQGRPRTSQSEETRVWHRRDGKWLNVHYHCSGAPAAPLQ

GRK4 = GRK4 (Homo sapiens, UniProt P32298); test: biochemical; settings: read-out: % enzyme activity, 1 μM; Run 1, Run 2
Sequence of GRK4 (P32298 whole entry): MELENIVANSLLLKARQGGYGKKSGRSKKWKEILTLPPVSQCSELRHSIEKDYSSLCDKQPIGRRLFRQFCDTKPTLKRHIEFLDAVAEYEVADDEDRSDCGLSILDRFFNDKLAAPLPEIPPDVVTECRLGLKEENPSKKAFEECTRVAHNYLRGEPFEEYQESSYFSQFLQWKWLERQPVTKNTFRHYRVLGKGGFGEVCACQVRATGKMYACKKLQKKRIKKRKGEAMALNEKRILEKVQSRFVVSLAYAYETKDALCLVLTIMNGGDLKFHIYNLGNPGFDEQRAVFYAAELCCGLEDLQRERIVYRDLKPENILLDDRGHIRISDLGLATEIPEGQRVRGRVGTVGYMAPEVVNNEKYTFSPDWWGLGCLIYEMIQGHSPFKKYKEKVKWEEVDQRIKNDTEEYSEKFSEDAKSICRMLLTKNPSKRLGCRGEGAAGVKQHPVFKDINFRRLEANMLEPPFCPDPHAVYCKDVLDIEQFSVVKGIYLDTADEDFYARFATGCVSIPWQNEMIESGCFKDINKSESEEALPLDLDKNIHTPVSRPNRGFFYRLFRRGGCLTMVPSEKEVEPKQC

in vitro = settings: human, Caco-2, pH 7.4
BLK = BLK (Homo sapiens, UniProt P51451); settings: 1 μM; Run 1, Run 2
Sequence of BLK (P51451 whole entry): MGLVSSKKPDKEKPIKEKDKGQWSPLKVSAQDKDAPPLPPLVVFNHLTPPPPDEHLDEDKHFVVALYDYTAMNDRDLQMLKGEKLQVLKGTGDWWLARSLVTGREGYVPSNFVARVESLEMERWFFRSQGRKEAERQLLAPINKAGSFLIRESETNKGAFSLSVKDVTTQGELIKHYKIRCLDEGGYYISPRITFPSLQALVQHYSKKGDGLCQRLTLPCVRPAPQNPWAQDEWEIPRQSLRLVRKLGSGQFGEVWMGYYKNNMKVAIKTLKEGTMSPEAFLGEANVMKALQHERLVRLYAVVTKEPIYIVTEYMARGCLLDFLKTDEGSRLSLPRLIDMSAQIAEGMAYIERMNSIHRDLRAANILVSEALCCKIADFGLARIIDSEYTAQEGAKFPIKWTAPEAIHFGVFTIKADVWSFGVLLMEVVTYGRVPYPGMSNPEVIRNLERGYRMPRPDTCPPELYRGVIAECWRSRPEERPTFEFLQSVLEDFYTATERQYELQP

MYLK4 = biological target: T3, MYLK4 (Homo sapiens, UniProt Q86YV6); settings: 1 μM; Run 1, Run 2
T3 sequence (Q86YV6 1-388): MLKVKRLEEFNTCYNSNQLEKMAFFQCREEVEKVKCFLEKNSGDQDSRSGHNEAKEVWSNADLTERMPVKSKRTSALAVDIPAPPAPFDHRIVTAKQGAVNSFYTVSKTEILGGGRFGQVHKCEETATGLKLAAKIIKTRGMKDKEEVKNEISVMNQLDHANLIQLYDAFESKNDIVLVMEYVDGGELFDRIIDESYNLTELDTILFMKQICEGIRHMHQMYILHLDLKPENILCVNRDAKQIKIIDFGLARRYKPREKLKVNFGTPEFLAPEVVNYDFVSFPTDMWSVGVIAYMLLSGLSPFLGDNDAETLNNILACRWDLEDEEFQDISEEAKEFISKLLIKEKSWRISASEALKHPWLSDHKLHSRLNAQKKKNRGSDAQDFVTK

[1] = 10 mg/kg PO, relative to 8b
CYP2B6 = CYP2B6 (Homo sapiens, UniProt P20813); settings: read-out: CYP2B6 IC50; human liver microsomes
MNK2 = MNK2 (Homo sapiens, UniProt Q9HBH9); settings: 1 μM; Run 1, Run 2
Sequence of MNK2 (Q9HBH9 whole entry): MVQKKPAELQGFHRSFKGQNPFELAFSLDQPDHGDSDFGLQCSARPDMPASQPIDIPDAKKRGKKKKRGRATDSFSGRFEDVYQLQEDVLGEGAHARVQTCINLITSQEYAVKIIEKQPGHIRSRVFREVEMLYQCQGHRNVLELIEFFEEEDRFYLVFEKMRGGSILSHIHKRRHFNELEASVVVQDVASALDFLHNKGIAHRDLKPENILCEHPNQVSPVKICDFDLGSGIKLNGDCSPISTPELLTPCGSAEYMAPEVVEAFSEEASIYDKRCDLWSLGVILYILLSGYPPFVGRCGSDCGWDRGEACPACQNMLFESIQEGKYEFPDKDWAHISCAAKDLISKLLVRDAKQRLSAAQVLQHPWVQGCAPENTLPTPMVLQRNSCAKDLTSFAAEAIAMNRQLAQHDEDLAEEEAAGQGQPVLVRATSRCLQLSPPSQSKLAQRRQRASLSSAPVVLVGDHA

Row | SMILES | Fold Selectivity (ALK5/ALK2) (ALK2/ACVR1) | remaining activity at 1 µM (TRKA) [%] | half-life at 24 h (in vivo) [h] | % enzyme activity (DDR1; 1 μM) [%] | remaining activity at 1 µM (DDR1; read-out: % enzyme activity, 1 μM) [%] | % enzyme activity (PKN1/PRK1) [%] | % enzyme activity (CAMK2g) [%] | remaining activity at 1 µM (GRK4) [%] | efflux ratio (in vitro) | % enzyme activity (BLK) [%] | % enzyme activity (MYLK4) [%] | fold increase in AUCinf [1] [fold] | fold increase in Cmax [1] | IC50 (CYP2B6) [nM] | IC50 (NanoBRET ALK2) [nM] | % enzyme activity (MNK2) [%] | IC50 (DLA ALK5) [nM]
1 | COc1cc(-c2cncc(-c3ccc(N4CCN(C)CC4)cc3)c2C)cc(F)c1C(N)=O [Compound 26a, 2-Fluoro-6-methoxy-4-(4-methyl-5-(4-(4-methylpiperazin-1-yl)phenyl)pyridin-3-yl)benzamide] | 350 | 91.8 | 2.56 | 31.23 | 32.1 | 96.76 | 100.65 | 80.4 | < 3 | 95.94 | 95.79 | > 13 | greater than 17 fold | – | – | – | –
2 | COc1cc(-c2cncc(-c3ccc(N4C[C@@H](C)N(C)[C@@H](C)C4)cc3)c2C)cc(F)c1C(N)=O [Compound 26c, 2-Fluoro-6-methoxy-4-(4-methyl-5-(4-((3R,5S)-3,4,5-trimethylpiperazin-1-yl)phenyl)pyridin-3-yl)benzamide] | – | 95.2 | – | – | – | 96.39 | 107.66 | 97.1 | – | – | 102.67 | – | – | > 50000 | 100 | 68.28 | > 5000
